Our source for the TGI and GI50 values is PubChem BioAssay (NCI).

Test systems include 786-0 renal; EKVX NSCLC; SK-OV-3 ovarian; OVCAR-5 ovarian; NCI-H460 lung; K-562 leukemia; OVCAR-4 ovarian; CAKI-1 renal; RPMI-8226 leukemia; HCC-2998 colon.
Common to all, as to experiment: NCI anticancer screen, dose series, 48 h

“And” between values parts separate entries of the source, which are not always exact repeats. Equal entries are not always repeated.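 Protocol summary: plate cells (96-well), add compound at 5 concentrations, incubate 48 h, interpolate endpoints linearly. GI50 is the concentration that inhibits growth by half. At the TGI there is no net growth.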 Where only a bound is given, the exact number is not on record here.

As for `CN(N=O)c1ccc(/C=C/c2ccnc3ccccc23)cc1`, the TGI with 786-0 renal, with EKVX NSCLC, in the assay with SK-OV-3 ovarian, in the assay on OVCAR-5 ovarian, in the assay with NCI-H460 lung and in the assay with K-562 leukemia was more than 100 µM in each case. Also, the TGI with OVCAR-4 ovarian and in the assay on CAKI-1 renal was more than 100 µM each time.
On to `O=C(CC1(O)C(=O)Nc2ccccc21)c1cccc(O)c1` (stereo not drawn), for which the TGI with 786-0 renal, in the assay with EKVX NSCLC, in the assay with SK-OV-3 ovarian, with OVCAR-5 ovarian, in the assay on RPMI-8226 leukemia and in the assay on NCI-H460 lung was more than 100 µM throughout. In addition, the TGI in the assay with K-562 leukemia, in the assay on OVCAR-4 ovarian and with CAKI-1 renal was more than 100 µM throughout.
As to `CC1(C)C2CC(=O)C1(C)C(OCc1ccccc1)C2Br` (stereo not drawn), the GI50 is 46.5 µM and > 100 µM in the assay on 786-0 renal; 27.7 µM and 98.6 µM in the assay on HCC-2998 colon; 41.5 µM and > 100 µM in the assay on SK-OV-3 ovarian; 32.2 µM and > 100 µM with OVCAR-5 ovarian; 20.2 µM and 48.5 µM with NCI-H460 lung. Further, the TGI in the assay on 786-0 renal is more than 100 µM; with EKVX NSCLC, more than 100 µM; in the assay on HCC-2998 colon it was 69.3 µM and > 100 µM; in the assay with SK-OV-3 ovarian, more than 100 µM; with OVCAR-5 ovarian, more than 100 µM; in the assay on NCI-H460 lung, 43.5 µM and > 100 µM. In addition, the TGI in the assay on K-562 leukemia was more than 100 µM.
Consider `COc1cc(/C=N\Nc2ccccc2)ccc1OC(=O)c1ccccc1`, for which the GI50 was 5.09 µM with 786-0 renal; 3.83 µM in the assay with HCC-2998 colon; 45.6 µM in the assay on SK-OV-3 ovarian; 12.8 µM with OVCAR-5 ovarian; 3.79 µM in the assay with RPMI-8226 leukemia; 1.22 µM in the assay on NCI-H460 lung. The GI50 in the assay on K-562 leukemia is 0.369 µM; with OVCAR-4 ovarian, 8.21 µM; in the assay with CAKI-1 renal, 2.27 µM. Besides, the TGI with 786-0 renal is more than 100 µM; with HCC-2998 colon, 17.1 µM; with SK-OV-3 ovarian, more than 100 µM; with OVCAR-5 ovarian, more than 100 µM; in the assay on RPMI-8226 leukemia it was more than 55.9 µM; in the assay on NCI-H460 lung, more than 46 µM. For the same molecule, the values for the TGI in the assay on K-562 leukemia, in the assay with OVCAR-4 ovarian and in the assay on CAKI-1 renal were 11.8 µM, more than 100 µM and 33.7 µM, respectively.
In the case of `COc1cc2c(cc1O)CCN[C@@]21CS[C@H]2c3c(OC(C)=O)c(C)c4c(c3C(COC1=O)N1C2C2NC(Cc3cc(C)c(OC)c(O)c32)[C@@H]1O)OCO4` (stereo partly drawn), the GI50 with 786-0 renal is 4.5 ng/mL; in the assay on EKVX NSCLC it was 0.000588 ng/mL; in the assay on SK-OV-3 ovarian, 4.5 ng/mL; in the assay with K-562 leukemia, 4.5 ng/mL; in the assay on OVCAR-4 ovarian, 4.5 ng/mL; in the assay with CAKI-1 renal, 0.000294 ng/mL. The TGI is 30.8 nM and 0.0045 µg/mL in the assay with 786-0 renal; < 10 nM and 1.3e-05 µg/mL with EKVX NSCLC; 10.9 µM and 1.47 µg/mL in the assay with SK-OV-3 ovarian; 14.6 µM and 7.3e-07 µg/mL and 0.0045 µg/mL with OVCAR-5 ovarian; > 100 µM and 6.4e-07 µg/mL with RPMI-8226 leukemia; less than 0.01 µM in the assay on NCI-H460 lung. For the same molecule, the TGI in the assay with K-562 leukemia was 11.3 µM and 0.0045 µg/mL; in the assay with OVCAR-4 ovarian, < 10 nM and 0.0045 µg/mL; with CAKI-1 renal, 3.03 µM.
Consider `CC(C)(c1ccc(C=O)o1)c1ccc(C(C)(C)c2ccc(C=O)o2)o1`, for which the TGI in the assay with 786-0 renal, in the assay on EKVX NSCLC, in the assay with HCC-2998 colon, in the assay on SK-OV-3 ovarian, in the assay on OVCAR-5 ovarian and in the assay on NCI-H460 lung was more than 100 µM throughout. The TGI in the assay with K-562 leukemia, in the assay with OVCAR-4 ovarian and with CAKI-1 renal was more than 100 µM in each case.
`O=[N+]([O-])c1ccc(N=P(c2ccccc2)(c2ccccc2)c2ccccc2)n2nnnc12`: the TGI in the assay on 786-0 renal is more than 100 µM; in the assay on EKVX NSCLC, more than 100 µM; with SK-OV-3 ovarian, 95.8 µM; in the assay with OVCAR-5 ovarian, more than 100 µM; in the assay with RPMI-8226 leukemia, more than 100 µM; in the assay on NCI-H460 lung, more than 100 µM. The TGI in the assay with K-562 leukemia was more than 100 µM; with OVCAR-4 ovarian it was 90.3 µM; with CAKI-1 renal, more than 100 µM.
As to `COc1ccc(N2C(=O)[C@@H]3[C@@H]4CC(C)CC[C@@H]4c4c([nH]c5ccccc45)[C@@H]3C2=O)cc1` (stereo partly drawn), the TGI is 20.6 µM in the assay on 786-0 renal; more than 100 µM in the assay with EKVX NSCLC; more than 100 µM in the assay on HCC-2998 colon; 22.8 µM in the assay on SK-OV-3 ovarian; more than 100 µM with OVCAR-5 ovarian; 59.3 µM with NCI-H460 lung. Further, the results for the TGI in the assay with K-562 leukemia, in the assay on OVCAR-4 ovarian and in the assay with CAKI-1 renal were more than 100 µM, 37 µM and more than 72.9 µM, respectively.
With `COc1ccccc1NC(=O)c1sc2ncn(CCOc3ccccc3)c(=O)c2c1C`, the GI50 was more than 50 µM with 786-0 renal; 5.08 µM with EKVX NSCLC; more than 50 µM in the assay on SK-OV-3 ovarian; 39.2 µM in the assay with OVCAR-5 ovarian; 9.2 µM in the assay on RPMI-8226 leukemia; 2.55 µM in the assay with NCI-H460 lung. Besides, the values for the GI50 in the assay with K-562 leukemia and with CAKI-1 renal were 0.761 µM and 2.42 µM, respectively. The TGI in the assay on 786-0 renal, with EKVX NSCLC, in the assay with SK-OV-3 ovarian, with OVCAR-5 ovarian, with RPMI-8226 leukemia and with NCI-H460 lung was more than 50 µM in each case. In addition, the TGI is 4.39 µM with K-562 leukemia and more than 50 µM in the assay with CAKI-1 renal.
Take `CC(C)(C)n1cc(-c2ccnc(NCCCNS(=O)(=O)c3cccc4ccccc34)c2)c(-c2cccc(O)c2)n1`: the GI50 with 786-0 renal was 2.09 µM; with EKVX NSCLC, 2.13 µM; in the assay on HCC-2998 colon it was 1.87 µM; with SK-OV-3 ovarian it was 2.63 µM; with OVCAR-5 ovarian, 1.98 µM; with NCI-H460 lung it was 1.93 µM. In addition, the GI50 in the assay with K-562 leukemia is 1.48 µM; in the assay on OVCAR-4 ovarian, 1.92 µM; with CAKI-1 renal it was 2.49 µM. In addition, the TGI in the assay with 786-0 renal was 5.12 µM; in the assay with EKVX NSCLC, 6.32 µM; in the assay with HCC-2998 colon, 3.37 µM; in the assay with SK-OV-3 ovarian, 7.23 µM; with OVCAR-5 ovarian, 4.06 µM; in the assay with NCI-H460 lung, 3.8 µM. Moreover, the TGI was more than 100 µM with K-562 leukemia, 4.75 µM with OVCAR-4 ovarian and 7.04 µM with CAKI-1 renal.
Consider `O=C1c2ccccc2-c2cn(Cc3ccccc3)c3cccc(c23)C1c1cccnc1` (stereo not drawn), for which the GI50 is 5.78 µM with 786-0 renal; 9.61 µM in the assay with EKVX NSCLC; 11.4 µM in the assay with HCC-2998 colon; 5.38 µM in the assay on SK-OV-3 ovarian; more than 50 µM with OVCAR-5 ovarian; 1.9 µM in the assay with NCI-H460 lung. Besides, the GI50 is 2.09 µM in the assay with K-562 leukemia, 6.15 µM with OVCAR-4 ovarian and 2.74 µM in the assay on CAKI-1 renal. In addition, the TGI in the assay on 786-0 renal, with EKVX NSCLC, in the assay with HCC-2998 colon, in the assay on SK-OV-3 ovarian, in the assay on OVCAR-5 ovarian and in the assay with NCI-H460 lung was more than 50 µM in each case. The TGI in the assay with K-562 leukemia, in the assay with OVCAR-4 ovarian and in the assay on CAKI-1 renal was more than 50 µM in each case.
Consider `C=C(C)[C@@H]1CC[C@]2(C(=O)O)CC[C@]3(C)[C@H](CC[C@@H]4[C@@]5(C)CCC(N)C(C)(C)[C@@H]5CC[C@]43C)[C@@H]12` (stereo partly drawn), for which the GI50 in the assay on 786-0 renal is 1.59 µM; in the assay with SK-OV-3 ovarian it was more than 100 µM; in the assay on RPMI-8226 leukemia, 2.04 µM; with NCI-H460 lung, 3.12 µM; in the assay with K-562 leukemia, 0.682 µM; with OVCAR-4 ovarian it was 2.79 µM. Moreover, the TGI with 786-0 renal is 3.07 µM; with SK-OV-3 ovarian it was more than 100 µM; in the assay on RPMI-8226 leukemia it was 5.21 µM; with NCI-H460 lung it was more than 100 µM; in the assay with K-562 leukemia it was 3.36 µM; in the assay on OVCAR-4 ovarian it was more than 100 µM.
As for `CC1=C(\C=C/C(C)=C/C=C/C(C)=C/C=C/C=C(C)\C=C\C=C(C)/C=C/C2=C(C)CCCC2(C)C)C(C)(C)CCC1`, the TGI in the assay on 786-0 renal, in the assay on HCC-2998 colon, with SK-OV-3 ovarian, in the assay with OVCAR-5 ovarian, with NCI-H460 lung and in the assay on K-562 leukemia was more than 100 µM in each case. In addition, the TGI in the assay with OVCAR-4 ovarian was more than 100 µM.
On to `CC1OC(O[C@@H]2C=C3CC[C@@H]4[C@H](CC[C@]5(C)[C@@H](c6ccc(=O)oc6)CC[C@]45O)[C@@]3(C)CC2)C(O)C(O)C1O` (stereo partly drawn), for which the GI50 in the assay with 786-0 renal is 7.06e-05 µM; in the assay with HCC-2998 colon it was 0.00159 µM. Moreover, the TGI is 0.003 µM and 0.00108 µM with EKVX NSCLC; 0.003 µM in the assay with HCC-2998 colon; 0.0115 µM and 0.0318 µM in the assay on OVCAR-5 ovarian; 0.003 µM and 0.00049 µM in the assay on NCI-H460 lung; 0.00224 µM and 0.00365 µM in the assay on OVCAR-4 ovarian; 0.000992 µM in the assay with CAKI-1 renal.
With `COc1ccc2c(Cl)cc(NC(=S)Nc3ccccc3)nc2c1`, the TGI was 62.7 µM in the assay on 786-0 renal; 63.1 µM in the assay on EKVX NSCLC; 61.1 µM with SK-OV-3 ovarian; 99.6 µM with OVCAR-5 ovarian; 59.9 µM in the assay with RPMI-8226 leukemia; more than 100 µM in the assay with NCI-H460 lung. Besides, the TGI in the assay on K-562 leukemia is 60.2 µM; with OVCAR-4 ovarian, more than 100 µM; in the assay on CAKI-1 renal, more than 100 µM.
`Cc1cc2c3ccccc3n3c2c2c1OC1(C)CCC(C2C1)C3(C)C` (stereo not drawn): the TGI in the assay on 786-0 renal, in the assay on HCC-2998 colon, in the assay with SK-OV-3 ovarian, in the assay on OVCAR-5 ovarian, with RPMI-8226 leukemia and in the assay with NCI-H460 lung was more than 25 µM throughout. The TGI in the assay with K-562 leukemia and with OVCAR-4 ovarian was more than 25 µM in each case.
`CN1C/C(=C\c2ccccc2)C2=NN(C(N)=S)[C@H](c3ccccc3)[C@@H]2C1`: the TGI in the assay on 786-0 renal, with EKVX NSCLC, with HCC-2998 colon, in the assay with SK-OV-3 ovarian, in the assay with OVCAR-5 ovarian and in the assay with NCI-H460 lung was more than 100 µM throughout. Also, the TGI with K-562 leukemia and with OVCAR-4 ovarian was more than 100 µM each time.
